Data from BigSolDB 2.1.

Oc1ccccc1C=Nc1c(F)cccc1F
solubility (mole fraction)
Conditions | 273.15 K | 278.15 K | 283.15 K | 288.15 K | 293.15 K | 298.15 K | 303.15 K
in 1,2-dichloroethane | 0.105 | 0.122 | 0.142 | 0.164 | 0.193 | 0.234 | 0.277
in THF | 0.161 | 0.181 | 0.2 | 0.23 | 0.258 | 0.293 | 0.338
in acetonitrile | 0.0134 | 0.0191 | 0.0272 | 0.0389 | 0.0547 | 0.0768 | 0.106
in chloroform | 0.138 | 0.154 | 0.177 | 0.203 | 0.232 | 0.27 | 0.313
in dichloromethane | 0.122 | 0.139 | 0.161 | 0.185 | 0.218 | 0.252 | 0.295
in ethanol | 0.00496 | 0.00633 | 0.00819 | 0.0103 | 0.0128 | 0.0157 | 0.0192
in ethyl acetate | 0.0896 | 0.104 | 0.124 | 0.146 | 0.173 | 0.204 | 0.248
in isopropanol | 0.008 | 0.0095 | 0.0114 | 0.0136 | 0.0164 | 0.0195 | 0.0231
in methanol | 0.00299 | 0.00392 | 0.00512 | 0.00667 | 0.00873 | 0.0111 | 0.0141
in n-propanol | 0.00636 | 0.00779 | 0.00958 | 0.0118 | 0.0146 | 0.0177 | 0.0212
in toluene | 0.0871 | 0.105 | 0.126 | 0.149 | 0.176 | 0.213 | 0.251
